Results published in PMC12288454, “Functional consequences of genetic variations in DgoR, a GntR/FadR family transcriptional repressor of D-galactonate metabolism in Escherichia coli” (Journal of Bacteriology, 2025).
Changes are numbered by the printed parent chain.

T1: DgoR (BW WT DgoR) (Escherichia coli, UniProt P31460)
T1 construct: full length (229 aa), C-terminal 6XHis tag, expressed from Ptrc in pRC10 in E. coli BL21(DE3), Co-NTA purified; dimer
T1 sequence (P31460 1-229): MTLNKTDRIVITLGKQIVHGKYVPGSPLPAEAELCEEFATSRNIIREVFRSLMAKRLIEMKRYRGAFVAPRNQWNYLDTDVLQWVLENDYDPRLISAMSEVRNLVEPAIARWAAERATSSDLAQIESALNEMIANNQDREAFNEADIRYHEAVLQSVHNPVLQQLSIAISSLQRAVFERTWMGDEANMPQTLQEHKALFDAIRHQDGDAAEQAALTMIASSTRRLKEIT

T2: DgoR (BW WT DgoR) (Escherichia coli, UniProt P31460, R71C)
T2 construct: full length (229 aa), C-terminal 6XHis tag, expressed from Ptrc in pRC10 in E. coli BL21(DE3), Co-NTA purified; dimer
T2 sequence (P31460 1-229 R71C): T1 sequence (P31460 1-229) with R71C

T3: DgoR (BW WT DgoR) (Escherichia coli, UniProt P31460, A152E)
T3 construct: full length (229 aa), C-terminal 6XHis tag, expressed from Ptrc in pRC10 in E. coli BL21(DE3), Co-NTA purified; dimer
T3 sequence (P31460 1-229 A152E): T1 sequence (P31460 1-229) with A152E

T4: DgoR WT (Escherichia coli BW, UniProt P31460 1-229)
T4 sequence: T1 sequence (P31460 1-229)

B1: dgo promoter probe GA149/GA150 (dsDNA)
DNA 1: GTGATCTAAATTGTAGTACAACAATATAAGTTTGTACTACATTACACGCACG
DNA 2: CGTGCGTGTAATGTAGTACAAACTTATATTGTTGTACTACAATTTAGATCAC

Assays:
[1] = molecular target: T1, DgoR (BW WT DgoR); assay: label-free microscale thermophoresis; format: binding
[2] = molecular target: T2, DgoR (BW WT DgoR); assay: label-free microscale thermophoresis; format: binding
[3] = molecular target: T3, DgoR (BW WT DgoR); assay: label-free microscale thermophoresis; format: binding
[4] = molecular target: T4, DgoR WT; assay: EMSA; no effector; apparent Kd, Hill fit; 10 nM DNA, 50 mM Tris pH 8.5, 10 mM MgCl2, 265 mM NaCl, 1 mM PMSF, 12% glycerol, 2 mM DTT, 1 ug herring sperm DNA per 20 uL, 27 C 30 min; effector pre-incubation 37 C 20 min; 8% native PAGE 0.5x TBE; details: protein: recombinant; tags: C-terminal 6xHis; chain copies: 2; label: 5'-Cy5 on strand 1; blunt

| Molecule | Kd [1] | Kd [2] | Kd [3] | Kd [4] |
| --- | --- | --- | --- | --- |
| O=C(O)[C@H](O)[C@@H](O)[C@@H](O)[C@H](O)CO [D-galactonate] | 10.3 ± 0.3 µM | 32.9 ± 1.2 µM | 11.3 ± 0.2 µM | – |
| B1 | – | – | – | 0.494 ± 0.019 µM |
